Measurements: US20250223297A1, “NOVEL RAPAMYCIN DERIVATIVES” (Novartis AG, priority 2017, published 2025)

Assays:
[1] = system: mTORC1 signaling (pS6 Ser240/244) in MEF TSC1−/− cells; assay: MEF TSC1-/- cell based assay for rapalog potency (pS6); design: species or system mouse; settings: 2 h treatment, average from multiple assays
Source text: Potency of mTOR inhibitors may also be determined using a MEF TSC1−/− cell-based assay. MEF TSC1−/− cells are Mouse Embryonic Fibroblasts deficient in the Tuberous sclerosis protein, TSC1, which negatively regulates mTORC1 signaling. Thus, the deficiency of TSC1 induces constitutive mTORC1 activation, resulting in phosphorylation (activation) of the downstream proteins in the mTORC1 signaling pathways. This cell-based assay is used to measure inhibition (de-phosphorylation) of the mTORC1 signaling components S6 and 4EBP1, by rapalogs or other mTOR inhibitors.
The assay is typically carried out as follows: MEF TSC1−/− cells are plated on Poly-D-lysine coated 384 well Griener clear bottom plates and incubated overnight at 37° C., 5% CO2. […] Cells are fixed with 4% paraformaldehyde for 30 min and washed 5 times with TBS-EDTA followed by immuno-staining with florescent tag labeled antibodies for pS6 and p4EBP1. Nuclei are visualized with Hoechst staining. Cells are imaged using respective florescence channels and the potency of mTOR inhibitors is defined by pS6 IC50 (nM).
Cell-based assay for rapalog potency determination. Rapalog potency was determined using MEF TSC1−/− cell based assay. MEF TSC1−/− cells are Mouse Embryonic Fibroblasts deficient in Tuberous sclerosis protein-TSC1, which negatively regulates mTORC1 signaling and thus display constitutive mTORC1 activation, resulting in phosphorylation (activation) of downstream molecules. This cell-based assay is used to measure inhibition (de-phosphorylation) of S6 and 4EBP1 by rapalogs or other mTOR inhibitors.
MEF TSC1−/− cells were plated on Poly-D-lysine coated 384 well Griener clear bottom plates and incubated overnight at 37° C., 5% CO2. […] Nuclei were visualized with Hoechst (ThermoFisher Scientific #H3570) staining. Cells were imaged (InCell 600) using respective fluorescence channels and the potency of mTOR inhibitors was defined by pS6 IC50 (nM).
In vitro potency of mTOR inhibitors was defined by pS6 IC50 (nM) in MEF TSC1−/− cells.
IC50 values are calculated as the average from multiple assays.

FKBP52 = FKBP52 (Homo sapiens (Human), UniProt Q02790); assay: SPR assay, binding affinity to FKBP52; settings: single-cycle kinetics
FKBP52, sequence (Q02790 whole entry, the tested form may be a part): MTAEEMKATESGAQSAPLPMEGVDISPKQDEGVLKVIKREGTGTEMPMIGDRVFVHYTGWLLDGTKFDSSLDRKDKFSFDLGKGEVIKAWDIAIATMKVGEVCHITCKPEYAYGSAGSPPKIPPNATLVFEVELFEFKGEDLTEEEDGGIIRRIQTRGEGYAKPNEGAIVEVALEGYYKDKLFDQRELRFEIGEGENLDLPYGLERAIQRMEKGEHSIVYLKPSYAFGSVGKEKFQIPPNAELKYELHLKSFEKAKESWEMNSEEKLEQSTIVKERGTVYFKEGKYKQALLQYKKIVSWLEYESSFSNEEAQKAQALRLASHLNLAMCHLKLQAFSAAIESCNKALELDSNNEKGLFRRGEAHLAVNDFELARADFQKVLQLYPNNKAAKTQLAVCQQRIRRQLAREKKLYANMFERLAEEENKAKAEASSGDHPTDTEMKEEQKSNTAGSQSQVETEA
Method: (§1) SPR Assay to Determine Binding Affinity to FK506-Binding Proteins (FKBP). N-terminal avi-his6 tagged FKBP fusions to FKBP12, FKBP51 and FKBP52 were expressed in E. coli and purified using standard chromatography. Each protein was subsequently immobilized on a streptavidin chip in a Biacore 8K SPR instrument (GE Healthcare). Using single-cycle kinetics, compound titrations were flowed at 45 uL/min over each surface using 2-minute association and 30-minute dissociation phases in a buffer containing 50 mM Tris pH 7.5/150 mM NaCl/0.01% Tween 20/1 mM DTT/2% DMSO. The data was fit using low molecular weight (LMW) single-cycle kinetics. The equilibrium dissociation constants (KD) are reported. […]

FKBP12 = FKBP12 (Homo sapiens (Human), UniProt P62942); assay: SPR assay, binding affinity to FKBP12; settings: single-cycle kinetics
FKBP12, sequence (P62942 whole entry): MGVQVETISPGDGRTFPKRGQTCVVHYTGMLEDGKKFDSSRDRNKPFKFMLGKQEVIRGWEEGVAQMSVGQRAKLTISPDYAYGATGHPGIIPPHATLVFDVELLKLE
Method: as §1

[2] = system: S6K1 (Thr389) phosphorylation (mTORC1 activity) in WT 293T cells; assay: S6K1 (Thr389) phosphorylation ELISA in wild-type 293T cells; type: cell-based; settings: 2 h, relative to DMSO
Method: WT, FKBP12 knock-down and FKBP12 knock-out 293T cells were plated at a density of 30,000 cells per well in poly-D-Lysine coated 96-well plates (Corning, #354461) in Dulbecco's modified Eagle's medium (ThermoFisher, #11995-065) supplemented with 10% fetal bovine serum (ThermoFisher, #16140-071). Cells were incubated at 37° C., 5% CO2 for 48 hours until they reached ˜80% confluence. […] Media supplemented with blank Dimethyl sulfoxide (DMSO) was used as a control for both compounds. Phosphorylated amounts of S6K1 (Thr389) were detected by a sandwich ELISA kit (Cell signaling, #7063C) following the manufacture's protocol.
S6K1 is a downstream target of mTORC1 and phosphorylation of its rapalog-sensitive Thr389 site is used as a functional readout of mTORC1 activity. Lee, C. H., Inoki, K. and Guan, K. L. (2007). mTOR pathway as a target in […]. Annu. Rev. Pharmacol. Toxicol. 47. 443-467. […] In FKBP12 knock-out cells. […] Such specificity of Example 2 to FKBP12 may facilitate targeting cells and tissues with relatively high levels of FKBP12 expression, while avoiding (or minimizing) side effects in the tissues where FKBP12 is weakly expressed.

[3] = system: S6K1 (Thr389) phosphorylation (mTORC1 activity) in FKBP12 knock-out 293T cells; assay: S6K1 (Thr389) phosphorylation ELISA in FKBP12 knock-out 293T cells; type: cell-based; settings: 2 h, relative to DMSO
[4] = system: S6K1 (Thr389) phosphorylation (mTORC1 activity) in FKBP12 knock-down 293T cells; assay: S6K1 (Thr389) phosphorylation ELISA in FKBP12 knock-down 293T cells; type: cell-based; settings: 2 h, relative to DMSO

CO[C@@H]1C[C@H](C[C@@H](C)[C@@H]2CC[C@H](C)/C=C(\C)[C@@H](O)[C@@H](OC)C(=O)[C@H](C)C[C@H](C)/C=C/C=C/C=C(\C)C(N3CCS3(=O)=O)C[C@@H]3CC[C@@H](C)[C@@](O)(O3)C(=O)C(=O)N3CCCC[C@H]3C(=O)O2)CC[C@H]1OCCO (single isomer, unassigned) [Example 8, C16-(1,1-dioxido-1,2-thiazetidin-2-yl)-C32-deoxo-C40-(2-hydroxyethoxy)-rapamycin]
IC50 [1]: 0.328 nM

CO[C@@H]1C[C@H](C[C@@H](C)[C@@H]2CC[C@H](C)/C=C(\C)[C@@H](O)[C@@H](OC)C(=O)[C@H](C)C[C@H](C)/C=C/C=C/C=C(\C)C(N3CCS3(=O)=O)C[C@@H]3CC[C@@H](C)[C@@](O)(O3)C(=O)C(=O)N3CCCC[C@H]3C(=O)O2)CC[C@H]1O (single isomer, unassigned) [Example 7, C16-(1,1-dioxido-1,2-thiazetidin-2-yl)-C32-deoxo-rapamycin]
IC50 [1]: 0.3 nM

CO[C@@H]1C[C@H](C[C@@H](C)[C@@H]2CC[C@H](C)/C=C(\C)[C@@H](O)[C@@H](OC)C(=O)[C@H](C)C[C@H](C)/C=C/C=C/C=C(\C)C(N3CCS3(=O)=O)C[C@@H]3CC[C@@H](C)[C@@](O)(O3)C(=O)C(=O)N3CCCC[C@H]3C(=O)O2)CC[C@@H]1n1cnnn1 (single isomer, unassigned) [Example 13]
IC50 [1]: 0.656 nM

CO[C@@H]1C[C@H](C[C@@H](C)[C@@H]2CC[C@H](C)/C=C(\C)[C@@H](O)[C@@H](OC)C(=O)[C@H](C)C[C@H](C)/C=C/C=C/C=C(\C)C(N3CCS3(=O)=O)C[C@@H]3CC[C@@H](C)[C@@](O)(O3)C(=O)C(=O)N3CCCC[C@H]3C(=O)O2)CC[C@H]1OP(C)(C)=O (single isomer, unassigned) [Example 10, C16-(1,1-dioxido-1,2-thiazetidin-2-yl)-C32-deoxo-C40-dimethylphosphinyl-rapamycin]
Kd (FKBP52): 176 nM
Kd (FKBP12): 1.6 nM

CO[C@@H]1C[C@H](C[C@@H](C)[C@@H]2CC[C@H](C)/C=C(\C)[C@@H](O)[C@@H](OC)C(=O)[C@H](C)C[C@H](C)/C=C/C=C/C=C(\C)C(N3CCCS3(=O)=O)C[C@@H]3CC[C@@H](C)[C@@](O)(O3)C(=O)C(=O)N3CCCC[C@H]3C(=O)O2)CC[C@H]1OP(C)(C)=O (single isomer, unassigned) [Example 15, C16-(1,1-dioxidoisothiazolidin-2-yl)-C32-deoxo-C40-dimethylphosphinyl-rapamycin]
IC50 ([1]; Mus musculus, 2 h): 3.2 nM

CO[C@@H]1C[C@H](C[C@@H](C)[C@@H]2CC[C@H](C)/C=C(\C)[C@@H](O)[C@@H](OC)C(=O)[C@H](C)C[C@H](C)/C=C/C=C/C=C(\C)C(N3CCS3(=O)=O)C[C@@H]3CC[C@@H](C)[C@@](O)(O3)C(=O)C(=O)N3CCCC[C@H]3C(=O)O2)CC[C@H]1OCCO (single isomer, unassigned) [Example 9, C16-(1,1-dioxido-1,2-thiazetidin-2-yl)-C32-deoxo-C40-(2-hydroxyethoxy)-rapamycin]
IC50 [1]: 1.45 nM

CO[C@@H]1C[C@H](C[C@@H](C)[C@@H]2CC[C@H](C)/C=C(\C)[C@@H](O)[C@@H](OC)C(=O)[C@H](C)C[C@H](C)/C=C/C=C/C=C(\C)C(N3CCS3(=O)=O)C[C@@H]3CC[C@@H](C)[C@@](O)(O3)C(=O)C(=O)N3CCCC[C@H]3C(=O)O2)CC[C@H]1O (single isomer, unassigned) [Example 6, C16-(1,1-dioxido-1,2-thiazetidin-2-yl)-C32-deoxo-rapamycin]
IC50 ([1]; Mus musculus, 2 h): 0.17 nM

CO[C@@H]1C[C@H](C[C@@H](C)[C@@H]2CC[C@H](C)/C=C(\C)[C@@H](O)[C@@H](OC)C(=O)[C@H](C)C[C@H](C)/C=C/C=C/C=C(\C)C(N3CCN(CCO)C3=O)C[C@@H]3CC[C@@H](C)[C@@](O)(O3)C(=O)C(=O)N3CCCC[C@H]3C(=O)O2)CC[C@H]1O (single isomer, unassigned) [Example 5]
IC50 ([1]; Mus musculus, 2 h): 153 nM

CO[C@@H]1C[C@H](C[C@@H](C)[C@@H]2CC[C@H](C)/C=C(\C)[C@@H](O)[C@@H](OC)C(=O)[C@H](C)C[C@H](C)/C=C/C=C/C=C(\C)C(N3CCS3(=O)=O)C[C@@H]3CC[C@@H](C)[C@@](O)(O3)C(=O)C(=O)N3CCCC[C@H]3C(=O)O2)CC[C@@H]1n1cnnn1 (single isomer, unassigned) [Example 12]
IC50 ([1]; Mus musculus, 2 h): 0.374 nM

CO[C@@H]1C[C@H](C[C@@H](C)[C@@H]2CC[C@H](C)/C=C(\C)[C@@H](O)[C@@H](OC)C(=O)[C@H](C)C[C@H](C)/C=C/C=C/C=C(\C)C(N3CCCS3(=O)=O)C[C@@H]3CC[C@@H](C)[C@@](O)(O3)C(=O)C(=O)N3CCCC[C@H]3C(=O)O2)CC[C@H]1OP(C)(C)=O (single isomer, unassigned) [Example 14, C16-(1,1-dioxidoisothiazolidin-2-yl)-C32-deoxo-C40-dimethylphosphinyl-rapamycin]
IC50 ([1]; Mus musculus, 2 h): 7.77 nM
Kd (FKBP52): 542 nM
Kd (FKBP12): 16 nM

CO[C@H]1C[C@@H]2CC[C@@H](C)[C@@](O)(O2)C(=O)C(=O)N2CCCC[C@H]2C(=O)O[C@H]([C@H](C)C[C@@H]2CC[C@@H](OCCO)[C@H](OC)C2)CC(=O)[C@H](C)/C=C(\C)[C@@H](O)[C@@H](OC)C(=O)[C@H](C)C[C@H](C)/C=C/C=C/C=C/1C [RAD001, everolimus, reference compound]
inhibition of S6K1 (Thr389) [2]: ~80%
inhibition of S6K1 (Thr389) phosphorylation [3]: > 60%
maximum inhibition of S6K1 (Thr389) [4]: ~70%
Kd (FKBP52): 1760 nM
Kd (FKBP12): 500 nM

CO[C@@H]1C[C@H](C[C@@H](C)[C@@H]2CC[C@H](C)/C=C(\C)[C@@H](O)[C@@H](OC)C(=O)[C@H](C)C[C@H](C)/C=C/C=C/C=C(\C)[C@H](N3CCCS3(=O)=O)C[C@@H]3CC[C@@H](C)[C@@](O)(O3)C(=O)C(=O)N3CCCC[C@H]3C(=O)O2)CC[C@H]1OCCO [Example 16]
Kd (FKBP52): 4070 nM
Kd (FKBP12): 35 nM
